Experimental data from patent US12448388B2, “PRMT5 inhibitors and uses thereof” (Gilead Sciences, Inc., priority 2023, dated 2025).
Read-outs that look alike come from different tables or passages of the source.

Test system: HCT116 MTAP-deleted cell lines
Assay: Cell viability assay (CellTiter-Glo, 7 days), HCT116 MTAP-deleted
Assay type: cell-based
Conditions: Homo sapiens, HCT-116, HCT116 MTAP-deleted, class symbols, read-out: CC50
Outline: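 Each PRMT5 inhibitor was tested as a dose response alongside tool compounds on the same plate. Incubation ran 7 days at 37 °C under 5% CO2, after which CellTiter-Glo luminescence was recorded and CC50 calculated.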

SMILES	CC50 (cell viability) [nM]	CC50 (cell viability assay) [nM]
Cc1ncc2c(N)nc3cc(F)c(C(=O)N4CCC[C@@H]5OCc6nc(C(F)(F)F)ccc6[C@@H]54)cc3n12 [Ff-359, (4-amino-7-fluoro-1-methylimidazo[1,5-a]quinoxalin-8-yl)((4aS,10bS)-8-(trifluoromethyl)-2,3,4,4a,6,10b-hexahydro-1H-pyrano[3,2-b:5,4-b′]dipyridin-1-yl)methanone]	< 100	–
Cc1ncn2c1c(N)nc1cc(Cl)c(C(=O)N3CCC[C@@H]4OCc5nc(C(F)(F)F)ccc5[C@@H]43)cc12 [Ff-360, (4-amino-7-chloro-3-methylimidazo[1,5-a]quinoxalin-8-yl)((4aS,10bS)-8-(trifluoromethyl)-2,3,4,4a,6,10b-hexahydro-1H-pyrano[3,2-b:5,4-b′]dipyridin-1-yl)methanone]	< 100	–
Nc1nc2cc(F)c(C(=O)N3CCC[C@@H]4Oc5nc(C(F)(F)F)ccc5[C@@H]43)cc2n2cncc12 [Ff-361, (4-amino-7-fluoroimidazo[1,5-a]quinoxalin-8-yl)((4aS,9bS)-7-(trifluoromethyl)-3,4,4a,9b-tetrahydrofuro[2,3-b:4,5-b′]dipyridin-1(2H)-yl)methanone]	< 100	–
Cc1ncn2c1c(N)nc1cc(F)c(C(=O)N3CCC[C@@H]4Oc5nc(C(F)(F)F)ccc5[C@@H]43)cc12 [Ff-362, (4-amino-7-fluoro-3-methylimidazo[1,5-a]quinoxalin-8-yl)((4aS,9bS)-7-(trifluoromethyl)-3,4,4a,9b-tetrahydrofuro[2,3-b:4,5-b′]dipyridin-1(2H)-yl)methanone]	< 100	–
Cc1ncn2c1c(N)nc1cc(Cl)c(C(=O)N3CCC[C@@H]4Oc5nc(C(F)(F)F)ccc5[C@@H]43)cc12 [Ff-364, (4-amino-7-chloro-3-methylimidazo[1,5-a]quinoxalin-8-yl)((4aS,9bS)-7-(trifluoromethyl)-3,4,4a,9b-tetrahydrofuro[2,3-b:4,5-b′]dipyridin-1(2H)-yl)methanone]	< 100	–
Nc1nc2cc(F)c(C(=O)N3CC[C@H]4C[C@@H]3c3ccc(C(F)(F)F)cc3O4)cc2n2cncc12 [Ff-365, (4-amino-7-fluoroimidazo[1,5-a]quinoxalin-8-yl)((2S,6R)-9-(trifluoromethyl)-3,4-dihydro-2H-2,6-methanobenzo[b][1,5]oxazocin-5(6H)-yl)methanone]	< 100	–
Cc1ncc2c(N)nc3cnc(C(=O)N4CC[C@H]5C[C@@H]4c4ccc(C(F)(F)F)cc4O5)cc3n12 [Ff-369, (4-amino-1-methylimidazo[1,5-a]pyrido[3,4-e]pyrazin-8-yl)((2S,6R)-9-(trifluoromethyl)-3,4-dihydro-2H-2,6-methanobenzo[b][1,5]oxazocin-5(6H)-yl)methanone]	–	< 100
Nc1nc2cc(Cl)c(C(=O)N3CC[C@H]4C[C@@H]3c3ccc(C(F)(F)F)cc3O4)cc2n2cncc12 [Ff-370, (4-amino-7-chloroimidazo[1,5-a]quinoxalin-8-yl)((2S,6R)-9-(trifluoromethyl)-3,4-dihydro-2H-2,6-methanobenzo[b][1,5]oxazocin-5(6H)-yl)methanone]	–	< 100
Nc1nc2cc(Cl)c(C(=O)N3CC[C@H]4C[C@@H]3c3ccc(C(F)(F)F)nc3O4)cc2n2cncc12 [Ff-371, (4-amino-7-chloroimidazo[1,5-a]quinoxalin-8-yl)((2S,6R)-9-(trifluoromethyl)-3,4-dihydro-2H-2,6-methanopyrido[2,3-b][1,5]oxazocin-5(6H)-yl)methanone]	–	< 100
Cc1ncn2c1c(N)nc1cc(F)c(C(=O)N3C[C@H](C)C[C@@H]4Oc5nc(C(F)(F)F)ccc5[C@@H]43)cc12 [Ff-374, (4-amino-7-fluoro-3-methylimidazo[1,5-a]quinoxalin-8-yl)((3R,4aS,9bS)-3-methyl-7-(trifluoromethyl)-3,4,4a,9b-tetrahydrofuro[2,3-b:4,5-b′]dipyridin-1(2H)-yl)methanone]	–	< 100
